Measurements published in PMC6683035, “Extra Virgin Olive Oil Contains a Phenolic Inhibitor of the Histone Demethylase LSD1/KDM1A” (Nutrients, 2019).

Biological target: T1, LSD1 (lysine-specific histone demethylase 1A, KDM1A) (Homo sapiens, UniProt O60341)
T1 construct: recombinant human LSD1 (BPS#50103)
Experiment: AlphaScreen demethylase assay with biotinylated histone H3 peptide substrate and purified recombinant LSD1
Type: biochemical

IC50: ~2.5 µM
SMILES: C/C=C(/C=O)[C@@H](CC=O)CC(=O)OCCc1ccc(O)c(O)c1 [oleacein]
